Measured values taken from US20250082761A1, “DUAL-TARGETED RNA POLYMERASE INHIBITORS: CONJUGATES OF BENZOXAZINO- AND SPIRO-RIFAMYCINS WITH N ALPHA-AROYL-N-ARYL-[…]” (priority 2021, published 2025).
Values after ≈ are worked out from the molar mass of the structure shown.

How the values were obtained:
CYP3A4 = assay: in vitro; conditions: male, human, hepatocytes
[1] = system: Mycobacterium tuberculosis H37Rv; assay: microbe, parasite or virus in culture; type: cell-based; conditions: read-out: antibacterial activity M. tuberculosis H37Rv MIC
[2] = system: Mycobacterium abscessus IDR-1400012185; type: cell-based; parameters: unit not given here
[3] = system: Mycobacterium avium ATCC 25291; assay: Microplate Alamar Blue MIC assay, M. avium; type: cell-based; conditions: unit not given

[2H]C([2H])(c1ccccc1)[C@@H](NC(=O)c1ccccc1F)C(=O)Nc1cc(F)ccc1N1CCN(c2cc(O)c3nc4c5c6c7c(C)c(O)c5c(=O)c(c-4oc3c2)NC(=O)/C(C)=C\C=C\[C@H](C)[C@H](O)[C@@H](C)[C@@H](O)[C@@H](C)[C@H](OC(C)=O)[C@H](C)[C@@H](OC)/C=C/O[C@@](C)(O7)C6=O)CC1 [IX-511a, 3'-hydroxy-benzoxazinorifamycin S-(IX-370a) conjugate]
IC50 (CYP3A4): 10 µM
MIC [1]: 0.002 µg/mL (≈ 0.00158 µM)
antibacterial activity M. abscessus IDR-1400012185 [2]: 1.56
antibacterial activity M. avium ATCC 25291 [3]: 0.024

[2H]C([2H])(c1ccccc1)C(NC(=O)c1ccccc1F)C(=O)Nc1cc(F)ccc1N1CCC2(CC1)N=C1C(=C3NC(=O)/C(C)=C\C=C\[C@H](C)[C@H](O)[C@@H](C)[C@@H](O)[C@@H](C)[C@H](OC(C)=O)[C@H](C)[C@@H](OC)/C=C/O[C@]4(C)Oc5c(C)c(O)c(c1c5C4=O)C3=O)N2 (stereo partly drawn) [IX-515, spirorifamycin S-(IX-513) conjugate]
IC50 (CYP3A4): > 10 µM
MIC [1]: 0.031 µg/mL (≈ 0.0265 µM)
antibacterial activity M. abscessus IDR-1400012185 [2]: 6.25
antibacterial activity M. avium ATCC 25291 [3]: 0.78

[2H]C([2H])(c1ccccc1)[C@@H](NC(=O)c1ccccc1F)C(=O)Nc1cc(F)ccc1N1CCN(c2ccc3nc4c5c6c7c(C)c(O)c5c(=O)c(c-4oc3c2)NC(=O)/C(C)=C\C=C\[C@H](C)[C@H](O)[C@@H](C)[C@@H](O)[C@@H](C)[C@H](OC(C)=O)[C@H](C)[C@@H](OC)/C=C/O[C@@](C)(O7)C6=O)CC1 [IX-516a, benzoxazinorifamycin S-(IX-370a) conjugate]
IC50 (CYP3A4): 10 µM
MIC [1]: 0.031 µg/mL (≈ 0.0248 µM)
antibacterial activity M. abscessus IDR-1400012185 [2]: 3.13

[2H]C([2H])(c1ccccc1)[C@@H](NC(=O)c1ccccc1F)C(=O)Nc1cc(F)ccc1N1CCN(c2cc(O)c3nc4c5c6c7c(C)c(O)c5c(=O)c(c-4oc3c2)NC(=O)/C(C)=C\C=C\[C@H](C)[C@H](O)[C@@H](C)[C@@H](O)[C@@H](C)[C@H](O)[C@H](C)[C@@H](OC)/C=C/O[C@@](C)(O7)C6=O)CC1 [IX-519a, desacetyl-3′-hydroxy-benzoxazinorifamycin S-(IX-370a) conjugate]
MIC [1]: 0.024 µg/mL (≈ 0.0196 µM)

CO[C@H]1/C=C/O[C@@]2(C)Oc3c(C)c(O)c4c(O)c(c(/C=N/N5CCN(C)CC5)c(O)c4c3C2=O)NC(=O)/C(C)=C\C=C\[C@H](C)[C@H](O)[C@@H](C)[C@@H](O)[C@@H](C)[C@H](OC(C)=O)[C@@H]1C [rifampin, reference compound]
MIC [1]: 0.063 µg/mL (≈ 0.0766 µM)
antibacterial activity M. abscessus IDR-1400012185 [2]: 1.56
antibacterial activity M. avium ATCC 25291 [3]: 0.024
